Results reported in patent US9464086B2, “Crystalline forms of N,N-dicyclopropyl-4-(1,5-dimethyl-1 H-pyrazol-3-ylamino)-6-ethyl-1-methyl-1,6-dihydroimidazo[4,5-D]pyrrolo[2,3-B]pyridine-7-carboxamide for the treatment of myeloproliferative disorders” (BRISTOL-MYERS SQUIBB COMPANY, priority 2013, dated 2016).

Experiments:
Format in all cases: physicochemical
[1] = Stability of the crystalline form under accelerated conditions of temperature and humidity; settings: solid form; up to 4 weeks
Excerpt: (§1) As previously noted, the N-2 form was selected due to a number of properties including chemical/physical stability, reproducibility and hygroscopicity.

[2] = Stability on exposure to UV/HIL; settings: solid form; 4 days
Excerpt: as §1

[3] = Stability of milled API under high humidity and temperature open dish conditions; settings: up to 2 weeks, 25° C./60% RH and 40° C./75% RH open
Excerpt: as §1

CCn1c(C(=O)N(C2CC2)C2CC2)cc2c3c(ncn3C)c(Nc3cc(C)n(C)n3)nc21 [Form N-2, N,N-dicyclopropyl-4-(1,5-dimethyl-1H-pyrazol-3-ylamino)-6-ethyl-1-methyl-1,6-dihydroimidazo[4,5-d]pyrrolo[2,3-b]pyridine-7-carboxamide]
stable: stability under accelerated conditions of temperature and humidity [1] | stability on exposure to UV/HIL [2] | stability under high humidity and temperature open dish conditions [3]
